For orientation: pIC50 means the negative decadic logarithm of the IC50, by convention in mol/L.

The source of these data is patent publication US20160297830A1, “NOVEL COMPOUNDS USEFUL FOR THE TREATMENT OF BACTERIAL INFECTIOUS DISEASES” (GALAPAGOS NV, priority 2013, published 2016).

The test system of assay [1] is S. aureus Sa1 ATCC 13709. Kind of assay: microbe, parasite or virus in culture. Format: cell-based. The conditions noted are these: Staphylococcus aureus.
The test system of assay [2] is S. aureus Sa26 ATCC 25923. Kind of assay: Antibacterial activity assay (MIC), S. aureus Sa26. The assay is classed as cell-based. Particulars: Staphylococcus aureus.
The subject of assay [3] is S. aureus Sa4 NCTC 6571. The experiment in a line: Antibacterial activity assay (MIC), S. aureus Sa4. Format: cell-based. Particulars: Staphylococcus aureus.
Assay [4] deals with S. aureus Sa2 clinical strain NCIMB 41953, MRSA. Kind of assay: microbe, parasite or virus in culture. The assay is classed as cell-based. The conditions noted are these: Staphylococcus aureus, read-out: MIC Sa2.
Assay [5] concerns H. influenza Hi3 ATCC 31517. Kind of assay: organism not typed. The assay is classed as cell-based. Particulars: read-out: MIC Hi3.
For assay [6], the system named is H. influenza Hi10 clinical strain. Kind of assay: organism not typed. Format: cell-based. The conditions noted are these: read-out: MIC Hi10.
For assay [7], the system named is H. influenza Hi47 clinical strain, Ampicillin Resistant. The experiment in a line: organism not typed. The assay is classed as cell-based. The conditions noted are these: read-out: MIC Hi47.
Assay [8] deals with H. influenza Hi106 ATCC 51907. Kind of assay: organism not typed. Format: cell-based. The conditions noted are these: read-out: MIC Hi106.
Assay [9] relates to E. coli Ec1 ATCC 25922. Kind of assay: Antibacterial activity assay (MIC), E. coli Ec1. The conditions noted are these: Escherichia coli. The assay is classed as cell-based.
For assay [10], the system named is E. coli Ec50 efflux pump KO. The experiment in a line: microbe, parasite or virus in culture. The assay is classed as cell-based. The conditions noted are these: Escherichia coli, read-out: MIC Ec50 efflux pump KO.
Assay [11] deals with E. coli Ec113 efflux pump KO. The experiment in a line: microbe, parasite or virus in culture. Format: cell-based. The conditions noted are these: Escherichia coli, read-out: MIC Ec113 efflux pump KO.
The target of assay [12] is DNA Polymerase IIIα (DnaE) from Staphylococcus aureus (Staphylococcus aureus, UniProt Q6GG04). Kind of assay: biochemical.
Setting [13] is: ATCC13709, S. aureus Sa1 ATCC 13709, sensitive strain, Mueller-Hinton Broth, 37° C., read-out: MIC Sa1.
[14] abbreviates: ATCC25923, read-out: MIC Sa26 + 10% SH, S. aureus Sa26 + 10% SH.
Where [15] appears, read: ATCC25923, read-out: MIC Sa26 + 50% SH, S. aureus Sa26 + 50% SH.
Setting [16] is: ATCC25923, S. aureus Sa26 ATCC 25923, sensitive strain, Mueller-Hinton Broth, 37° C., read-out: MIC Sa26.
[17] abbreviates: NCTC6571, S. aureus Sa4 NCTC 6571, sensitive strain, read-out: MIC Sa4.
[18] abbreviates: ATCC25922, E. coli Ec1 ATCC 25922, sensitive strain, read-out: MIC Ec1.
Setting [19] is: DNA polymerase III, S. aureus, read-out: IC50 semiquantitative scoring, S. aureus.

pIC50: −log10 of the molar value. In brackets after ≈: the same amount, converted by molar mass. Like-named read-outs stand apart in the source and are kept apart here.

Sequence of DNA Polymerase IIIα (DnaE) from Staphylococcus aureus (Q6GG04 1-1022): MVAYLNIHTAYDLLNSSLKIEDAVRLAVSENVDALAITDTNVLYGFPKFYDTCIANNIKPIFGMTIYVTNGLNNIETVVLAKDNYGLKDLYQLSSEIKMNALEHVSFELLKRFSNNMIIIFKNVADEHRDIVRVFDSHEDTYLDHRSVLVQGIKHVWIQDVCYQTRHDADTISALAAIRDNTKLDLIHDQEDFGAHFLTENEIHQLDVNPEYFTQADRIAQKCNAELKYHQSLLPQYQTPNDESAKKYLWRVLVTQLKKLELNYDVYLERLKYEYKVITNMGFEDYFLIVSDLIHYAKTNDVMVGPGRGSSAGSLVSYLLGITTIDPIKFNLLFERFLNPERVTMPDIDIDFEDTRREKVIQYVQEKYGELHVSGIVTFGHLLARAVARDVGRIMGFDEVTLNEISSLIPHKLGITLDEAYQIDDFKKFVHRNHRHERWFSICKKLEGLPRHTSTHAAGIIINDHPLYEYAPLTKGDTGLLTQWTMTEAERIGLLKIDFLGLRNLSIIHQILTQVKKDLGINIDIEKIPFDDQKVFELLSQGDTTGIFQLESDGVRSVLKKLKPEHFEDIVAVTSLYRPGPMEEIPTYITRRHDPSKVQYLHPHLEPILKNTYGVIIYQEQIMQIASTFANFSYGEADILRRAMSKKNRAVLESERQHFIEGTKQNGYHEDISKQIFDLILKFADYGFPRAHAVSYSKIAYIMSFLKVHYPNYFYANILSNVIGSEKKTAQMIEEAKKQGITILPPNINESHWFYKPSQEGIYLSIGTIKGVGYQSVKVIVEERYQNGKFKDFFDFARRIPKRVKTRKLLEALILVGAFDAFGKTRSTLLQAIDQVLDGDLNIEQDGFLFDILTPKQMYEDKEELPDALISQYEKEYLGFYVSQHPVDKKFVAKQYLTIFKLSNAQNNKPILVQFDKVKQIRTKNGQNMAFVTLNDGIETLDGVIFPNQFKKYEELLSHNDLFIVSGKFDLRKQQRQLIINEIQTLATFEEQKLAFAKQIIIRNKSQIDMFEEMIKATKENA

Regarding `COC[C@@H]1[C@@H](O)[C@@H]2[C@H]3C=C[C@@H]4[C@@H](COC)C(=O)O[C@H]([C@H](O)COC)[C@H](C)/C=C(\C)[C@@]24O[C@H]3[C@@H]1OC(=O)c1cc(Br)c(Br)[nH]1` [Compound 34, 8-O-4,5-Dibromo-1H-pyrrole-2′-carbonylbranimycin], the MIC was 64 µg/mL (≈ 87.3 µM) in assay [1] (setting [13]); greater than 64 µg/mL in assay [2] (setting [14]); greater than 64 µg/mL in assay [2] (setting [15]); 64 µg/mL (≈ 87.3 µM) in [2] (setting [16]); 32 µg/mL (≈ 43.6 µM) in [3] (setting [17]); 64 µg/mL (≈ 87.3 µM) in [4]. The MIC was greater than 64 µg/mL in assay [5]; greater than 64 µg/mL in [6]; 16 µg/mL (≈ 21.8 µM) in [7]; greater than 64 µg/mL in assay [8]; greater than 64 µg/mL in [9] (setting [18]); greater than 64 µg/mL in assay [10]. Besides, in assay [11], the MIC amounted to 64 µg/mL (≈ 87.3 µM). In addition, in [12] (setting [19]), the pIC50 is 4.87 to 5.87.

In the case of `COC/C(=N\OC)[C@H]1OC(=O)[C@H](COC)[C@H]2C=C[C@H]3[C@H]4O[C@]2(/C(C)=C/[C@H]1C)[C@@H]3[C@H](O)[C@@H](COC)[C@H]4OC(=O)c1ccc[nH]1` [Compound 27, 18-Deoxy-18-methoximino-8-O-1H-pyrrole-2′-carbonylbranimycin], the MIC in assay [1] (ATCC13709, read-out: MIC Sa1) is 1 µg/mL (≈ 1.66 µM); in assay [2] (ATCC25923, read-out: MIC Sa26) it was 1 µg/mL (≈ 1.66 µM); in assay [2] (ATCC25923, read-out: MIC Sa26 + 10% SH), 2 µg/mL; in assay [2] (ATCC25923, read-out: MIC Sa26 + 50% SH), 4 µg/mL; in [3] (NCTC6571, read-out: MIC Sa4) it was 1 µg/mL (≈ 1.66 µM); in assay [4], 1 µg/mL (≈ 1.66 µM). In addition, the MIC was greater than 64 µg/mL in assay [5]; greater than 64 µg/mL in assay [6]; greater than 64 µg/mL in [7]; greater than 64 µg/mL in [8]; greater than 64 µg/mL in [9] (ATCC25922, read-out: MIC Ec1); greater than 64 µg/mL in assay [10]. For the same compound, the MIC in assay [11] stood at 4 µg/mL (≈ 6.64 µM). The same compound had a pIC50 in [12] of 5.78 to 8.78.

In the case of `COC[C@@H]1[C@@H](O)[C@@H]2[C@H]3C=C[C@@H]4[C@@H](COC)C(=O)O[C@H]([C@H](O)COC)[C@H](C)/C=C(\C)[C@@]24O[C@H]3[C@@H]1OC(=O)c1cc(C)n[nH]1` [Compound 39, 8-O-5-Methyl-1H-Pyrazole-3′-carbonylbranimycin], the MIC in assay [1] (setting [13]), in assay [2] (setting [14]), in assay [2] (setting [15]), in [2] (setting [16]), in assay [3] (setting [17]) and in assay [4] was greater than 64 µg/mL each time. The MIC in [5], in assay [6], in assay [7], in assay [8], in assay [9] (setting [18]) and in assay [10] was greater than 64 µg/mL each time. For the same compound, the MIC in assay [11] was greater than 64 µg/mL. In assay [12], the pIC50 was 4.77 to 5.77.

In the case of `COC[C@@H]1[C@@H](O)[C@@H]2[C@H]3C=C[C@@H]4[C@@H](COC)C(=O)O[C@H]([C@H](O)COC)[C@H](C)/C=C(\C)[C@@]24O[C@H]3[C@@H]1OC(=O)c1cc(Br)c(Br)o1` [Compound 36, 8-O-4,5-Dibromofurane-2′-carbonylbranimycin], the MIC is 64 µg/mL (≈ 87.1 µM) in assay [1] (setting [13]); greater than 64 µg/mL in [2] (setting [14]); greater than 64 µg/mL in assay [2] (setting [15]); greater than 64 µg/mL in [2] (setting [16]); 32 µg/mL (≈ 43.6 µM) in [3] (setting [17]); 64 µg/mL (≈ 87.1 µM) in assay [4]. Further, the MIC in assay [5], in [6], in assay [7], in assay [8], in [9] (setting [18]) and in assay [10] was greater than 64 µg/mL each time. Moreover, the MIC in assay [11] is 64 µg/mL (≈ 87.1 µM). Further, the negative logarithm of the IC50 (pIC50) in assay [12] (setting [19]) is 5.87 to 8.87.

As for `COCC(=NO)[C@H]1OC(=O)[C@H](COC)[C@H]2C=C[C@H]3[C@H]4O[C@]2(/C(C)=C/[C@H]1C)[C@@H]3[C@H](O)[C@@H](COC)[C@H]4OC(=O)c1cc(Cl)c[nH]1` [Compound 41, 18-Deoxy-18-oximino-8-O-4-Chloro-1H-pyrrole-2′-carbonylbranimycin], the MIC in [1] (setting [13]) is 4 µg/mL (≈ 6.42 µM); in [2] (setting [14]), 4 µg/mL; in assay [2] (setting [15]) it was 32 µg/mL; in assay [2] (setting [16]), 2 µg/mL (≈ 3.21 µM); in assay [3] (setting [17]) it was 2 µg/mL (≈ 3.21 µM); in assay [5], greater than 64 µg/mL. The MIC is greater than 64 µg/mL in [6]; greater than 64 µg/mL in assay [7]; greater than 64 µg/mL in [8]; greater than 64 µg/mL in assay [9] (setting [18]); 64 µg/mL (≈ 103 µM) in assay [10]; 2 µg/mL (≈ 3.21 µM) in assay [11]. In assay [12], this compound gave a pIC50 of 5.79 to 8.79.

For `COC[C@@H]1[C@@H](O)[C@@H]2[C@H]3C=C[C@@H]4[C@@H](COC)C(=O)O[C@H]([C@H](O)COC)[C@H](C)/C=C(\C)[C@@]24O[C@H]3[C@@H]1OC(=O)c1cc(Br)c(F)[nH]1` [Compound 37, 8-O-4-Bromo-5-Fluoro-1H-pyrrole-2′-carbonylbranimycin], the MIC in [1] (setting [13]) is greater than 64 µg/mL; in assay [2] (setting [14]), greater than 64 µg/mL; in [2] (setting [15]), greater than 64 µg/mL; in assay [2] (setting [16]), 64 µg/mL (≈ 95.2 µM); in assay [3] (setting [17]), 64 µg/mL (≈ 95.2 µM); in assay [4], 64 µg/mL (≈ 95.2 µM). Moreover, the MIC in [5], in assay [6], in assay [7], in assay [8], in assay [9] (setting [18]) and in assay [10] was greater than 64 µg/mL each time. For the same compound, the MIC in assay [11] was 16 µg/mL (≈ 23.8 µM). Also, in [12] (setting [19]), the negative-log IC50 (pIC50) was 5.83 to 8.83.

Take `COCC(=NOC(C)=O)[C@H]1OC(=O)[C@H](COC)[C@H]2C=C[C@H]3[C@H]4O[C@]2(/C(C)=C/[C@H]1C)[C@@H]3[C@H](O)[C@@H](COC)[C@H]4OC(=O)c1ccc[nH]1` [Compound 29, 18-Acetylimino-18-deoxy-8-O-1H-pyrrole-2′-carbonylbranimycin]: the MIC came to 0.5 µg/mL (≈ 0.793 µM) in [1] (setting [13]); 1 µg/mL in assay [2] (setting [14]); 2 µg/mL in assay [2] (setting [15]); 1 µg/mL (≈ 1.59 µM) in assay [2] (setting [16]); 0.5 µg/mL (≈ 0.793 µM) in assay [3] (setting [17]); 0.5 µg/mL (≈ 0.793 µM) in [4]. Also, the MIC in assay [5] is greater than 64 µg/mL; in assay [6], greater than 64 µg/mL; in [7], 64 µg/mL (≈ 101 µM); in assay [8], 64 µg/mL (≈ 101 µM); in [9] (setting [18]) it was greater than 64 µg/mL; in assay [10] it was 32 µg/mL (≈ 50.7 µM). Besides, the MIC in assay [11] was determined as 0.5 µg/mL (≈ 0.793 µM). Also, the pIC50 in assay [12] is 5.80 to 8.80.

With `COC[C@@H]1[C@@H](O)[C@@H]2[C@H]3C=C[C@@H]4[C@@H](COC)C(=O)O[C@H]([C@H](O)COC)[C@H](C)/C=C(\C)[C@@]24O[C@H]3[C@@H]1OC(=O)c1cc(Br)c[nH]1` [Compound 32, 8-O-4-Bromo-1H-pyrrole-2′-carbonylbranimycin], the MIC was 4 µg/mL (≈ 6.11 µM) in [1] (setting [13]); 16 µg/mL in assay [2] (setting [14]); 64 µg/mL in [2] (setting [15]); 16 µg/mL (≈ 24.4 µM) in assay [2] (setting [16]); 8 µg/mL (≈ 12.2 µM) in [3] (setting [17]); 4 µg/mL (≈ 6.11 µM) in [4]. In addition, the MIC in assay [5], in [6], in assay [7], in assay [8], in [9] (setting [18]) and in assay [10] was greater than 64 µg/mL each time. The MIC in assay [11] stood at 64 µg/mL (≈ 97.8 µM). This compound had a pIC50 in assay [12] of 5.82 to 8.82.
